Earlier results on three compounds are cited in patent US20220047626A1, “COMPOSITION OF A SPRAY FORMULA TO CONTROL MASTITIS IN BOVINES” (priority 2018, published 2022).

In general, viscosity refers to the internal friction of a fluid under shear.

Each structure is given as a SMILES string.

For the data set the following is noted: stated in the description, no method given.
Turning to `OCC(O)CO` [glycerin], the viscosity is 950 cP.

In the case of `CC(O)CO` (stereo not drawn) [propylene glycol], the viscosity is recorded as 52 cP. Regarding `OC[C@@H](O)[C@@H](O)[C@H](O)[C@@H](O)CO` [sorbitol], the viscosity is 200 cP.
